Test results taken from ChEMBL document CHEMBL1201862, “PubChem BioAssay data set” (2004).
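A five-concentration, 48-hour dose response in 96-well plates underlies each endpoint, interpolated linearly between surrounding concentrations. Abbreviation: GI50, concentration required for 50% inhibition of growth.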 Active and inactive are the calls of the source. Cut-off read from the data, not from the text of the source: active = GI50 up to about 1.1 µM and inactive = higher.

Legend:
Experiment in all cases: DTP human tumour cell line panel, 48 h
SK-MEL-28 = test system: SK-MEL-28
HOP-62 = test system: HOP-62
NCI/ADR-RES = test system: NCI/ADR-RES
A549 = test system: A549
CCRF-CEM = test system: CCRF-CEM
COLO 205 = test system: COLO 205
MDA-N = test system: MDA-N
UACC-257 = test system: UACC-257
786-0 = test system: 786-0
MOLT-4 = test system: MOLT-4
Malme-3M = test system: Malme-3M
OVCAR-3 = test system: OVCAR-3
SK-OV-3 = test system: SK-OV-3
NCI-H226 = test system: NCI-H226
SK-MEL-2 = test system: SK-MEL-2
SNB-19 = test system: SNB-19
HT-29 = test system: HT-29
OVCAR-4 = test system: OVCAR-4
U-251 = test system: U-251
MCF7 = test system: MCF7
ACHN = test system: ACHN
A498 = test system: A498
SF-539 = test system: SF-539
NCI-H23 = test system: NCI-H23
MDA-MB-231 = test system: MDA-MB-231
HCC 2998 = test system: HCC 2998
T47D = test system: T47D
HCT-116 = test system: HCT-116
NCI-H460 = test system: NCI-H460
PC-3 = test system: PC-3
RXF 393 = test system: RXF 393
SF-295 = test system: SF-295
M14 = test system: M14
DU-145 = test system: DU-145
K562 = test system: K562
CAKI-1 = test system: CAKI-1
SNB-75 = test system: SNB-75
Hs-578T = test system: Hs-578T
HL-60 = test system: HL-60
MDA-MB-435 = test system: MDA-MB-435
OVCAR-5 = test system: OVCAR-5
EKVX = test system: EKVX
UO-31 = test system: UO-31
NCI-H522 = test system: NCI-H522
RPMI-8226 = test system: RPMI-8226
SK-MEL-5 = test system: SK-MEL-5
TK-10 = test system: TK-10
IGROV-1 = test system: IGROV-1
LOX IMVI = test system: LOX IMVI
HOP-92 = test system: HOP-92
SF-268 = test system: SF-268
SN12C = test system: SN12C
HCT-15 = test system: HCT-15
SR = test system: SR
UACC-62 = test system: UACC-62
OVCAR-8 = test system: OVCAR-8
SW-620 = test system: SW-620
KM12 = test system: KM12

Compound: O=C/C(=C1/C=Cc2cc([N+](=O)[O-])ccc2S1)c1ccccc1
- GI50 (SK-MEL-28): > 100 µM (inactive)
- GI50 (HOP-62): > 100 µM (inactive)
- GI50 (NCI/ADR-RES): > 100 µM (inactive)
- GI50 (A549): > 100 µM (inactive)
- GI50 (CCRF-CEM): > 100 µM (inactive)
- GI50 (COLO 205): > 100 µM (inactive)
- GI50 (MDA-N): > 100 µM (inactive)
- GI50 (UACC-257): > 100 µM (inactive)
- GI50 (786-0): > 100 µM (inactive)
- GI50 (MOLT-4): > 100 µM (inactive)
- GI50 (Malme-3M): > 100 µM (inactive)
- GI50 (OVCAR-3): > 100 µM (inactive)
- GI50 (SK-OV-3): > 100 µM (inactive)
- GI50 (NCI-H226): > 100 µM (inactive)
- GI50 (SK-MEL-2): > 100 µM (inactive)
- GI50 (SNB-19): > 100 µM (inactive)
- GI50 (HT-29): > 100 µM (inactive)
- GI50 (OVCAR-4): > 100 µM (inactive)
- GI50 (U-251): > 100 µM (inactive)
- GI50 (MCF7): > 100 µM (inactive)
- GI50 (ACHN): > 100 µM (inactive)
- GI50 (A498): > 100 µM (inactive)
- GI50 (SF-539): > 100 µM (inactive)
- GI50 (NCI-H23): > 100 µM (inactive)
- GI50 (MDA-MB-231): > 100 µM (inactive)
- GI50 (HCC 2998): > 100 µM (inactive)
- GI50 (T47D): > 100 µM (inactive)
- GI50 (HCT-116): > 100 µM (inactive)
- GI50 (NCI-H460): > 100 µM (inactive)
- GI50 (PC-3): > 100 µM (inactive)
- GI50 (RXF 393): > 100 µM (inactive)
- GI50 (SF-295): > 100 µM (inactive)
- GI50 (M14): > 100 µM (inactive)
- GI50 (DU-145): > 100 µM (inactive)
- GI50 (K562): > 100 µM (inactive)
- GI50 (CAKI-1): > 100 µM (inactive)
- GI50 (SNB-75): 25.1 µM (inactive)
- GI50 (Hs-578T): > 100 µM (inactive)
- GI50 (HL-60): > 100 µM (inactive)
- GI50 (MDA-MB-435): > 100 µM (inactive)
- GI50 (OVCAR-5): > 100 µM (inactive)
- GI50 (EKVX): > 100 µM (inactive)
- GI50 (UO-31): > 100 µM (inactive)
- GI50 (NCI-H522): > 100 µM (inactive)
- GI50 (RPMI-8226): > 100 µM (inactive)
- GI50 (SK-MEL-5): > 100 µM (inactive)
- GI50 (TK-10): > 100 µM (inactive)
- GI50 (IGROV-1): > 100 µM (inactive)
- GI50 (LOX IMVI): > 100 µM (inactive)
- GI50 (HOP-92): > 100 µM (inactive)
- GI50 (SF-268): > 100 µM (inactive)
- GI50 (SN12C): > 100 µM (inactive)
- GI50 (HCT-15): > 100 µM
- GI50 (SR): > 100 µM (inactive)

Compound: CC(C(=O)NCCNC(=O)CCCC(=O)N(C)O)C(=O)NCCNC(=O)CCCC(=O)N(C)O
- GI50 (SK-MEL-28): 20.1 µM (inactive)
- GI50 (HOP-62): > 100 µM (inactive)
- GI50 (NCI/ADR-RES): > 100 µM (inactive)
- GI50 (A549): > 100 µM (inactive)
- GI50 (CCRF-CEM): > 100 µM (inactive)
- GI50 (COLO 205): > 100 µM (inactive)
- GI50 (MDA-N): > 100 µM (inactive)
- GI50 (UACC-257): > 100 µM (inactive)
- GI50 (MOLT-4): > 100 µM (inactive)
- GI50 (UACC-62): > 100 µM (inactive)
- GI50 (Malme-3M): > 100 µM (inactive)
- GI50 (OVCAR-3): > 100 µM (inactive)
- GI50 (OVCAR-8): > 100 µM (inactive)
- GI50 (SK-OV-3): > 100 µM (inactive)
- GI50 (NCI-H226): > 100 µM (inactive)
- GI50 (SK-MEL-2): > 100 µM (inactive)
- GI50 (SNB-19): > 100 µM (inactive)
- GI50 (HT-29): > 100 µM (inactive)
- GI50 (OVCAR-4): > 100 µM (inactive)
- GI50 (SW-620): > 100 µM (inactive)
- GI50 (U-251): > 100 µM (inactive)
- GI50 (MCF7): > 100 µM (inactive)
- GI50 (ACHN): > 100 µM (inactive)
- GI50 (A498): > 100 µM (inactive)
- GI50 (NCI-H23): > 100 µM (inactive)
- GI50 (MDA-MB-231): > 100 µM (inactive)
- GI50 (HCC 2998): > 100 µM (inactive)
- GI50 (T47D): > 100 µM (inactive)
- GI50 (NCI-H460): > 100 µM (inactive)
- GI50 (PC-3): > 100 µM (inactive)
- GI50 (RXF 393): > 100 µM (inactive)
- GI50 (SF-295): > 100 µM (inactive)
- GI50 (M14): > 100 µM (inactive)
- GI50 (DU-145): > 100 µM (inactive)
- GI50 (K562): > 100 µM (inactive)
- GI50 (CAKI-1): > 100 µM (inactive)
- GI50 (SNB-75): > 100 µM (inactive)
- GI50 (Hs-578T): > 100 µM (inactive)
- GI50 (HL-60): > 100 µM (inactive)
- GI50 (MDA-MB-435): > 100 µM (inactive)
- GI50 (OVCAR-5): > 100 µM (inactive)
- GI50 (EKVX): > 100 µM (inactive)
- GI50 (UO-31): > 100 µM (inactive)
- GI50 (NCI-H522): > 100 µM (inactive)
- GI50 (RPMI-8226): > 100 µM (inactive)
- GI50 (SK-MEL-5): > 100 µM (inactive)
- GI50 (TK-10): > 100 µM (inactive)
- GI50 (KM12): > 100 µM (inactive)
- GI50 (IGROV-1): > 100 µM (inactive)
- GI50 (LOX IMVI): > 100 µM (inactive)
- GI50 (HOP-92): > 100 µM (inactive)
- GI50 (SF-268): > 100 µM (inactive)
- GI50 (HCT-15): > 100 µM
- GI50 (SR): > 100 µM (inactive)
